The supplement of paper PMC10627819

Columns and labels:
S. pneumoniae D39V [1] = experiment: fitness (endpoint OD595 vs no drug) (fraction); higher = more growth
In short: (§1)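 At 37 °C, bacteria in TSB, LB Lennox or CY were grown in 384-well plates from a starting OD595 of 0.01. OD595 was measured every 30 min for 14 h, with the first reading used as background. Fitness is the optical density at the switch to stationary phase as a fraction of the robust mean of no-drug control wells, capped at 1.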

B. subtilis 168 [2] = experiment: as above
In short: as §1

S. aureus Newman = experiment: Bliss interaction score (quartile over a dose matrix) (fitness difference); higher = more antagonism (negative = synergy)
In short: (§2)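 Fitness was derived from optical density at entry into stationary phase, divided by the robust mean of the no-drug wells on the same plate. That reading was taken as OD595, and the ratio was capped at 1. Single-drug fitness was inferred from the combination data. The Bliss score, observed fitness minus the expected product of single-drug fitness, was summarised as quartiles over technical, biological and donor/recipient replicates.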

S. pneumoniae D39V [3] = experiment: as above
In short: as §2

S. aureus DSM 20231 = experiment: as above
In short: as §2

B. subtilis 168 [4] = experiment: as above
In short: as §2
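Throughout, for Bliss interaction score (quartile over a dose matrix): first quartile when negative (synergy) and third quartile when positive (antagonism).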

SMILES: C[C@H]1c2cccc(O)c2C(=O)C2=C(O)[C@]3(O)C(=O)C(C(N)=O)=C(O)[C@@H](N(C)C)[C@@H]3[C@@H](O)[C@@H]21 [Doxycycline] + Cc1ncc([N+](=O)[O-])n1CCO [Metronidazole]
- fitness (S. pneumoniae D39V [1]; first compound 0.003875 µg/mL, partner 1.25 µg/mL, one replicate): ≥ 1
- fitness (S. pneumoniae D39V [1]; first compound 0.003875 µg/mL, partner 2.5 µg/mL, one replicate): ≥ 1
- fitness (S. pneumoniae D39V [1]; first compound 0.003875 µg/mL, partner 5 µg/mL, one replicate): ≥ 1
- fitness (S. pneumoniae D39V [1]; first compound 0.00775 µg/mL, partner 1.25 µg/mL, one replicate): ≥ 1
- fitness (S. pneumoniae D39V [1]; first compound 0.00775 µg/mL, partner 2.5 µg/mL, one replicate): ≥ 1
- fitness (S. pneumoniae D39V [1]; first compound 0.00775 µg/mL, partner 5 µg/mL, one replicate): ≥ 1
- fitness (S. pneumoniae D39V [1]; first compound 0.0155 µg/mL, partner 1.073 µg/mL): 0.873
- fitness (S. pneumoniae D39V [1]; first compound 0.0155 µg/mL, partner 1.25 µg/mL): 0.994
- fitness (S. pneumoniae D39V [1]; first compound 0.0155 µg/mL, partner 2.145 µg/mL): 0.851
- fitness (S. pneumoniae D39V [1]; first compound 0.0155 µg/mL, partner 2.5 µg/mL): ≥ 1
- fitness (S. pneumoniae D39V [1]; first compound 0.0155 µg/mL, partner 4.29 µg/mL): 0.809
- fitness (S. pneumoniae D39V [1]; first compound 0.0155 µg/mL, partner 5 µg/mL): 0.968
- fitness (S. pneumoniae D39V [1]; first compound 0.031 µg/mL, partner 1.073 µg/mL): 0.889
- fitness (S. pneumoniae D39V [1]; first compound 0.031 µg/mL, partner 1.25 µg/mL, one replicate): 0.938
- fitness (S. pneumoniae D39V [1]; first compound 0.031 µg/mL, partner 2.145 µg/mL): 0.853
- fitness (S. pneumoniae D39V [1]; first compound 0.031 µg/mL, partner 2.5 µg/mL, one replicate): 0.91
- fitness (S. pneumoniae D39V [1]; first compound 0.031 µg/mL, partner 4.29 µg/mL): 0.835
- fitness (S. pneumoniae D39V [1]; first compound 0.031 µg/mL, partner 5 µg/mL, one replicate): 0.892
- fitness (S. pneumoniae D39V [1]; first compound 0.062 µg/mL, partner 1.073 µg/mL): 0.838
- fitness (S. pneumoniae D39V [1]; first compound 0.062 µg/mL, partner 1.25 µg/mL, one replicate): 0.775
- fitness (S. pneumoniae D39V [1]; first compound 0.062 µg/mL, partner 2.145 µg/mL): 0.865
- fitness (S. pneumoniae D39V [1]; first compound 0.062 µg/mL, partner 2.5 µg/mL, one replicate): 0.794
- fitness (S. pneumoniae D39V [1]; first compound 0.062 µg/mL, partner 4.29 µg/mL): 0.829
- fitness (S. pneumoniae D39V [1]; first compound 0.062 µg/mL, partner 5 µg/mL, one replicate): 0.757
- fitness (B. subtilis 168 [2]; first compound 0.02 µg/mL, partner 0.625 µg/mL): 0.914
- fitness (B. subtilis 168 [2]; first compound 0.02 µg/mL, partner 1.25 µg/mL): 0.899
- fitness (B. subtilis 168 [2]; first compound 0.02 µg/mL, partner 2.5 µg/mL): 0.933
- fitness (B. subtilis 168 [2]; first compound 0.04 µg/mL, partner 0.625 µg/mL): 0.774
- fitness (B. subtilis 168 [2]; first compound 0.04 µg/mL, partner 1.25 µg/mL): 0.835
- fitness (B. subtilis 168 [2]; first compound 0.04 µg/mL, partner 2.5 µg/mL): 0.844
- fitness (B. subtilis 168 [2]; first compound 0.08 µg/mL, partner 0.625 µg/mL): 0.701
- fitness (B. subtilis 168 [2]; first compound 0.08 µg/mL, partner 1.25 µg/mL): 0.682
- fitness (B. subtilis 168 [2]; first compound 0.08 µg/mL, partner 2.5 µg/mL): 0.61
- Bliss interaction score (S. aureus Newman): 0.0262
- Bliss interaction score (S. pneumoniae D39V [3]): 0.0539
- Bliss interaction score (S. aureus DSM 20231): 0.0684
- Bliss interaction score (B. subtilis 168 [4]): 0.0635
